Source: patent US4499090A, “N-(5-aminomethyl-2-oxazolin-2-yl)-N'-phenylureas, compositions and use” (Societe Cortial, S.A., priority 1982, dated 1985)

How the values were obtained:
[1] = Toxicity determined in mice, oral and intraperitoneal administration; type: in vivo
Method: The toxicity was determined in mice for various ways of administration.

GABA transaminase = assay: Action on GABA transaminase, concluded from second administration of bicuculline; type: in vivo; conditions: concluded from lack of inhibition of convulsions at second bicuculline administration 5 hours later
[2] = tested on: convulsions induced by bicuculline; assay: Convulsions induced by injection of bicuculline; type: in vivo
[3] = tested on: arrhythmias in mice subjected to chloroform anesthesia; assay: Arrhythmias in mice subjected to chloroform anesthesia; type: in vivo; conditions: intraperitoneally, 100 mg/kg
[4] = tested on: edema of a rat's foot induced by carrageenan; assay: Edema of a rat's foot induced by carrageenan; type: in vivo; conditions: orally, 200 mg/kg
[5] = tested on: right auricle of a guinea pig; assay: Chronotropic effect induced by histamine on the spontaneously beating right auricle of a guinea pig; conditions: Cavia porcellus, 100 microg/ml, 5 microg/ml of histamine

| SMILES | mortality ([1]; intraperitoneally at 200 mg/kg) | mortality ([1]; orally at 300 mg/kg) | action on GABA transaminase (GABA transaminase) | type of activity ([2]; concluded from the bicuculline convulsion tests) | inhibition of convulsions induced by bicuculline ([2]; intraperitoneally, 80 mg/kg, 0.5 mg/kg of bicuculline 30 minutes later) | inhibition of convulsions induced by a second administration of bicuculline ([2]; intraperitoneally, 80 mg/kg, second administration of bicuculline 5 hours later) | appearance of arrhythmias [3] | inhibition of edema of a rat's foot induced by carrageenan [4] [%] | inhibition at 100 µg/mL [5] [%] |
| --- | --- | --- | --- | --- | --- | --- | --- | --- | --- |
| O=C(NC1=NCC(CN2CCc3ccccc3C2)O1)Nc1ccccc1 (centres unmarked) [Example 3] | did not cause any mortality | did not cause any mortality | does not act on the GABA transaminase | direct gabergic type | caused an inhibition of convulsions | no longer inhibits convulsions |  |  |  |
| O=C(NC1=NCC(CN2CCCCC2)O1)Nc1ccccc1 (centres unmarked) [Example 2, N-Phenyl-N'-(5-piperidinomethyl-2-oxazoline-2-yl)urea] | did not cause any mortality | did not cause any mortality |  |  |  |  | prevented the appearance of arrhythmias |  |  |
| CCN(CC)CC1CN=C(NC(=O)Nc2ccccc2)O1 (centres unmarked) [Example 1, N-(5-diethylaminomethyl-2-oxazolin-2-yl)-N'-phenylurea] | did not cause any mortality | did not cause any mortality |  |  |  |  | prevented the appearance of arrhythmias | 51 | > 50 |
